These results are taken from patent publication US7169786B2, “Isoxazoline derivatives as anti-depressants” (priority 2001, dated 2007).

Read-outs that look alike come from different tables or passages of the source.

For one experiment, the target named is T1, hα2A receptor (Homo sapiens, UniProt P08913).
T1 construct: expressed in transfected cells
T1 sequence (P08913 1-465): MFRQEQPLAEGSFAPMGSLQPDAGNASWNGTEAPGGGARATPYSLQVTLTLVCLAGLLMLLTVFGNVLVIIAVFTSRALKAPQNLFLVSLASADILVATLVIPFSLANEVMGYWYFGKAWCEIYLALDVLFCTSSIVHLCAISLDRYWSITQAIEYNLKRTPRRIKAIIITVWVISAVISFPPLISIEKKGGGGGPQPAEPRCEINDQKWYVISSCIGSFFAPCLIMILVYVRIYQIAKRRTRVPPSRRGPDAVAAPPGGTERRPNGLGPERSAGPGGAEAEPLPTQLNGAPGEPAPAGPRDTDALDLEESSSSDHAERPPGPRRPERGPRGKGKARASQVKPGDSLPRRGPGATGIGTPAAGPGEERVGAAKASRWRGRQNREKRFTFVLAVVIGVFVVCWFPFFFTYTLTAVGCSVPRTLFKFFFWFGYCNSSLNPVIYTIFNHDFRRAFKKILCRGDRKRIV
Briefly: Radioligand binding experiment for hα2A receptor ([3H]-raulwolscine). The following applies: membranes of CHO cells expressing human α2A receptor, [3H]raulwolscine 1 nM; for IC50: read-out: hα2A pIC50 (converted). As for the experimental part:
(§1) The interaction of the compounds of Formula (I) with hα2-receptors and h5-HT-transporters was assessed in in vitro radioligand binding experiments. In general, a low concentration of a radioligand with a high binding affinity for a particular receptor or transporter is incubated with a sample of a tissue preparation enriched in a particular receptor or transporter or with a preparation of cells expressing cloned human receptors in a buffered medium. During the incubation, the radioligand binds to the receptor or transporter. When equilibrium of binding is reached, the receptor bound radioactivity is separated from the non-bound radioactivity, and the receptor- or transporter-bound activity is counted. The interaction of the test compounds with the receptor is assessed in competition binding experiments. Various concentrations of the test compound are added to the incubation mixture containing the receptor- or transporter preparation and the radioligand. The test compound in proportion to its binding affinity and its concentration inhibits binding of the radioligand. The radioligand used for hα2A, hα2B and hα2C receptor binding was [^3H]-raulwolscine and for the h5-HT transporter was [^3H]paroxetine.
(§2) CHO cells, stabile transfected with human adrenergic-α2A-, -α2B or α2C receptor cDNA, were cultured in Dulbecco's Modified Eagle's Medium (DMEM)/Nutrient mixture Ham's F12 (ratio 1:1)(Gibco, Gent-Belgium) supplemented with 10% heat inactivated fetal calf serum (Life Technologies, Merelbeke-Belgium) and antibiotics (100 IU/ml penicillin G, 100 μg/ml streptomycin sulphate, 110 μg/ml pyruvic acid and 100 μg/ml L-glutamine). One day before collection, cells were induced with 5 mM sodiumbutyrate. Upon 80–90% of confluence, cells were scraped in phosphate buffered saline without Ca^2+ and Mg^2+ and collected by centrifugation at 1500×g for 10 min. The cells were homogenised in Tris-HCl 50 mM using an Ultraturrax homogenizer and centrifuged for 10 min at 23,500×g. The pellet was washed once by resuspension and rehomogenization and the final pellet was resuspended in Tris-HCl, divided in 1 ml aliquots and stored at −70° C.
(§3) Membranes were thawed and re-homogenized in incubation buffer (glycylglycine 25 mM, pH 8.0). […] Filters were rinsed extensively with ice-cold rinsing buffer (Tris-HCl 50 mM pH 7.4). Filter-bound radioactivity was determined by scintillation counting in a Topcount (Packard, Meriden, Conn.) and results were expressed as counts per minute (cpm). Non-specific binding was determined in the presence of 1 μM oxymetazoline for hα2A- and hα2B receptors and 1 μM spiroxatrine for hα2C receptors.
(§4) Data from assays in the presence of compound were calculated as a percentage of total binding measured in the absence of test compound. Inhibition curves, plotting percent of total binding versus the log value of the concentration of the test compound, were automatically generated, and sigmoidal inhibition curves were fitted using non-linear regression. The pIC50 values of test compounds were derived from individual curves.

The target of another experiment is T2, hα2C receptor (Homo sapiens, UniProt P18825).
T2 construct: expressed in transfected cells
T2 sequence (P18825 1-462): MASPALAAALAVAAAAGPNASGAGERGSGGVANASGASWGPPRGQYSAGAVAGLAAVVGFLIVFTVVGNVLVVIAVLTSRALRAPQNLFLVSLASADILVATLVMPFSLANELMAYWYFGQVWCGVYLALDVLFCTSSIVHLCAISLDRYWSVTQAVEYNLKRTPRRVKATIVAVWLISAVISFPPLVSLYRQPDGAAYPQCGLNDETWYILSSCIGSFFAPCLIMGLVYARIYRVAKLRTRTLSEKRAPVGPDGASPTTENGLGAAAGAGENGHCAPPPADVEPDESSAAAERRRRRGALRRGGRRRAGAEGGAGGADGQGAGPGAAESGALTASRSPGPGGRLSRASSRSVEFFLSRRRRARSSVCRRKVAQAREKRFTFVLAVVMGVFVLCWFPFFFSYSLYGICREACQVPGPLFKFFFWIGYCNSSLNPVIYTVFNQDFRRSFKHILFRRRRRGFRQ
Briefly: Radioligand binding experiment for hα2C receptor ([3H]-raulwolscine). The following applies: for IC50: read-out: hα2C pIC50 (converted). As for the experimental part: as §1, §2, §3, §4

In the next experiment the target is T3, h5-HT transporter (Homo sapiens, UniProt P31645).
T3 construct: Human platelet membranes (Oceanix Biosciences Corporation, Hanover, Md., USA) were thawed; tissue Oceanix Biosciences Corporation, Hanover, Md., USA; host or cells: human platelet membranes
T3 sequence (P31645 whole entry): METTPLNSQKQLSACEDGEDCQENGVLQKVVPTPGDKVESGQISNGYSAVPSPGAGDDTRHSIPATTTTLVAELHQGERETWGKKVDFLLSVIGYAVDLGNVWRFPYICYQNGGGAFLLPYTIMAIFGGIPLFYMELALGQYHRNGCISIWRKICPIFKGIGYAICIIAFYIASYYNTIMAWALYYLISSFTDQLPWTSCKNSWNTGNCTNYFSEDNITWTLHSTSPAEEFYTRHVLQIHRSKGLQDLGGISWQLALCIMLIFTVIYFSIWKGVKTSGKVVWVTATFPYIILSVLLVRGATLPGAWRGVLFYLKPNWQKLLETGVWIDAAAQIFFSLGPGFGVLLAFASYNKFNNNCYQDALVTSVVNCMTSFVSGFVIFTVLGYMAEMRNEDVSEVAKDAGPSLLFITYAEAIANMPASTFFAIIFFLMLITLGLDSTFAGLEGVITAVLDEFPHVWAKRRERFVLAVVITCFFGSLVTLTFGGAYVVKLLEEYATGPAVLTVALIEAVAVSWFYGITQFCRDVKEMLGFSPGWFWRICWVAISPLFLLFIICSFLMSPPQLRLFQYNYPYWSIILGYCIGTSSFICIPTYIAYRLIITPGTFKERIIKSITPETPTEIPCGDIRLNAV
Put plainly: Radioligand binding experiment for 5-HT transporter ([3H]paroxetine, human platelet membranes). As to conditions: for IC50: read-out: 5HTT pIC50 (converted). The procedure:
as §1
Human platelet membranes (Oceanix Biosciences Corporation, Hanover, Md., USA) were thawed, diluted in buffer (Tris-HCl 50 mM, 120 mM NaCl and 5 mM KCl) and quickly (max 3 s) homogenised with an Ultraturrax homogenizer. […] Filters were rinsed extensively with ice-cold buffer and radioactivity on the filters was counted in a Topcount liquid scintillation counter (Packard, Meriden, Conn.). Data were expressed as cpm. Imipramine (at 1 μM final concentration) was used to determine the non-specific binding.
as §4

The target in the next experiment is T4, hα2B receptor (Homo sapiens, UniProt P18089).
T4 construct: expressed in transfected cells
T4 sequence (P18089 1-450): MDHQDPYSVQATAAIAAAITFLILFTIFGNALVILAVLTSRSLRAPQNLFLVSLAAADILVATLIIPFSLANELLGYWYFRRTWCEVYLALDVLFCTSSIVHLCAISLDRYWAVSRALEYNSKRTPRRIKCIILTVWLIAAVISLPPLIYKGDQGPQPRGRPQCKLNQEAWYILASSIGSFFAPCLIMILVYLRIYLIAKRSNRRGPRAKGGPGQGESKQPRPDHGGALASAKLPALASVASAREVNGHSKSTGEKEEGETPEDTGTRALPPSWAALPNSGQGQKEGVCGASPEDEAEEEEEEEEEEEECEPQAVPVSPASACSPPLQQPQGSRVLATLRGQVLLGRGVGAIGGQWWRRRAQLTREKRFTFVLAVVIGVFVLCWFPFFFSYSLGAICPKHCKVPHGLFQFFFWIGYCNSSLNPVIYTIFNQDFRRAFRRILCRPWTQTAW
Briefly: Radioligand binding experiment for hα2B receptor ([3H]-raulwolscine). As to conditions: membranes of CHO cells expressing human α2B receptor; [3H]raulwolscine 1 nM; read-out: hα2B pIC50 (converted). The procedure:
as §1, §2, §3, §4

Setting [1] is: membranes of CHO cells expressing human α2C receptor, [3H]raulwolscine 1 nM.
Setting [2] is: human platelet membranes, [3H]paroxetine 0.5 nM.

Turning to `COc1cc2c(cc1OC)C1=NOC(CN3CCN(CCC(=O)c4ccccc4)CC3)C1CO2` (centres unmarked) [Compound 309], the IC50 at hα2A receptor is 50.1 nM; on hα2C receptor (setting [1]) it was 58.9 nM; at h5-HT transporter (setting [2]) it was 389 nM.

For `COc1cc2c(cc1OC)C1=NOC(CN3CCN(C/C=C(\C)c4cccc(Cl)c4)CC3)C1CO2` (single isomer, unassigned) [Compound 366], the IC50 on hα2A receptor is 12.9 nM; at hα2C receptor (setting [1]) it was 3.31 nM; at h5-HT transporter (setting [2]) it was 11.5 nM.

Take `COc1cc2c(cc1OC)C1=NOC(CN3CCN(Cc4cccc(Br)c4)CC3)C1CO2` (centres unmarked) [Compound 90]: the IC50 is 195 nM on hα2A receptor and 302 nM on h5-HT transporter (setting [2]).

Consider `COCCOCOc1cc2c(cc1OC)C1=NOC(CN3CCN(C/C(C)=C/c4ccccc4)CC3)C1CO2` (single isomer, unassigned) [Compound 342], for which the IC50 on hα2A receptor was 8.51 nM; on hα2C receptor (setting [1]) it was 0.162 nM; at h5-HT transporter (setting [2]), 17.4 nM.

Consider `COc1ccc2c(c1)C1=NOC(CN3CCN(CC(C)=Cc4ccccc4)CC3)C1CO2` (centres unmarked) [Compound 348], for which the values for the IC50 on hα2A receptor, at hα2C receptor (setting [1]) and at h5-HT transporter (setting [2]) were 1.2 nM, 1.32 nM and 17.8 nM, respectively.

Regarding `COC(=O)Oc1cc2c(cc1OC)C1=NOC(CN3CCN(C/C(C)=C/c4ccccc4)CC3)C1CO2` (single isomer, unassigned) [Compound 343], the IC50 is 2.34 nM on hα2A receptor, 1.23 nM at hα2C receptor (setting [1]) and 37.2 nM on h5-HT transporter (setting [2]).

As to `COc1cc2c(cc1OCC1CC1)OCC1C2=NOC1CN1CCN(C/C(C)=C/c2ccc(F)cc2)CC1` (single isomer, unassigned) [Compound 337], at hα2A receptor, the IC50 is 20.9 nM.

As to `COc1cc2c(cc1OC)C1=NOC(CN3CCN(CCC(O)c4ccccc4)CC3)C1CO2` (centres unmarked) [Compound 310], the IC50 was 214 nM at hα2A receptor, 64.6 nM on hα2C receptor (setting [1]) and 871 nM at h5-HT transporter (setting [2]).

Turning to `COc1cc2c(cc1SC)OCC1C2=NOC1CN1CCN(CC(C)=Cc2ccccc2)CC1.O=C(O)C(F)(F)F` (racemic) [Compound 350], the “hα2A pIC50” value on hα2A receptor is listed as 8.39. Further, on hα2C receptor (setting [1]), the “hα2C pIC50” value turned out to be 8.68. Besides, the “5HTT pIC50” value on h5-HT transporter (setting [2]) is on record as 7.69.

On to `COc1cc2c(cc1OC)C1=NOC(CN3CCN(Cc4cccn4C)CC3)C1CO2` (centres unmarked) [Compound 291], for which the values for the IC50 on hα2A receptor, at hα2C receptor (setting [1]) and at h5-HT transporter (setting [2]) were 851 nM, 1000 nM and 1000 nM, respectively.

Turning to `COc1cc2c(cc1OCCOC(C)=O)C1=NOC(CN3CCN(CC(C)=Cc4ccccc4)CC3)C1CO2` (centres unmarked) [Compound 332], the IC50 on hα2A receptor is 4.47 nM; at hα2C receptor (setting [1]), 0.603 nM; on h5-HT transporter (setting [2]) it was 58.9 nM.

With `COc1cc2c(cc1OCCN(C)C)OCC1C2=NOC1CN1CCN(C/C(C)=C/c2ccccc2)CC1` (single isomer, unassigned) [Compound 341], the IC50 at hα2A receptor was 3.63 nM; at hα2C receptor (setting [1]), 1.23 nM; at h5-HT transporter (setting [2]), 2.19 nM.

As for `COc1cc2c(cc1OC(C)=O)OCC1C2=NOC1CN1CCN(C/C(C)=C/c2cccc(F)c2)CC1` (single isomer, unassigned) [Compound 334], the IC50 is 2.69 nM on hα2A receptor and 2.29 nM on hα2C receptor (setting [1]).

As to `COc1cc2c(cc1OC)C1=NOC(CN3CCN(C/C=C(\C)c4ccc(F)cc4)CC3)C1CO2` (single isomer, unassigned) [Compound 361], the IC50 at hα2A receptor is 12.6 nM; at hα2C receptor (setting [1]), 3.09 nM; at h5-HT transporter (setting [2]), 4.17 nM.

As for `COc1cc2c(cc1OS(C)(=O)=O)OCC1C2=NOC1CN1CCN(CC(C)=Cc2ccccc2)CC1` (single isomer, unassigned) [Compound 346], the “hα2A pIC50” value on hα2A receptor turned out to be 8.65. Further, the “hα2C pIC50” value at hα2C receptor (setting [1]) worked out at 8.91. Besides, on h5-HT transporter (setting [2]), the “5HTT pIC50” value is given as 8.37.

As to `C=CCOc1cc2c(cc1OC)C1=NOC(CN3CCN(CC(C)=Cc4ccccc4)CC3)C1CO2` (single isomer, unassigned) [Compound 344], on hα2A receptor, the “hα2A pIC50” value was 8.45. The “hα2C pIC50” value at hα2C receptor (setting [1]) was 8.68. At h5-HT transporter (setting [2]), the “5HTT pIC50” value was found to be 8.00.

Turning to `COc1cc2c(cc1OC(C)=O)OCC1C2=NOC1CN1CCN(Cc2ccc3ccccc3c2)CC1` (centres unmarked) [Compound 355], the results for the IC50 on hα2A receptor, at hα2C receptor (setting [1]) and at h5-HT transporter (setting [2]) were 5.13 nM, 7.08 nM and 13.5 nM, respectively.

As for `COc1cc2c(cc1OC)C1=NOC(CN3CCN(C/C=C(\C)c4ccccc4F)CC3)C1CO2` (single isomer, unassigned) [Compound 359], the IC50 on hα2A receptor is 7.94 nM; on hα2C receptor (setting [1]), 3.47 nM; at h5-HT transporter (setting [2]), 44.7 nM.

In the case of `COc1cc2c(cc1OC)C1=NOC(CN3CCN(C/C=C(\C)c4ccsc4)CC3)C1CO2` (single isomer, unassigned) [Compound 323], the IC50 at hα2A receptor is 6.17 nM; at hα2C receptor (setting [1]), 9.55 nM; at h5-HT transporter (setting [2]) it was 15.1 nM.

Regarding `COc1cc2c(cc1OC(C)=O)OCC1C2=NOC1CN1CCN(C/C=C(\C)c2ccccc2)CC1` (single isomer, unassigned) [Compound 358], the IC50 on hα2A receptor is 1.48 nM; at hα2C receptor (setting [1]), 3.24 nM; on h5-HT transporter (setting [2]), 37.2 nM.

Turning to `CC(=Cc1ccccc1)CN1CCN(CC2ON=C3c4ccc(OC(=O)C(C)(C)C)cc4OCC32)CC1` (centres unmarked) [Compound 329], the results for the IC50 on hα2B receptor, at hα2C receptor and at h5-HT transporter were 27.5 nM, 18.2 nM and 33.1 nM, respectively.
